Source: US10328085B2, “Cobalt porphyrins for the treatment of blood-related disorders” (UNIWERSYTET JAGIELLONSKI, priority 2014, dated 2019)

Columns and labels:
[1] = test system: cytokines and growth factors in plasma; assay: cytokines and growth factors in plasma (Luminex); type: in vivo, mice
Description: FIG. 5—concentration of cytokines and growth factors in plasma of C3H mice after administration of test compounds; (test ANOVA+Bonferroni test),
FIG. 6—concentration of cytokines and growth factors in plasma of C57BL6xFVB mice after administration of CoPP; (test ANOVA+Bonferroni test),
(§1) CoPP was administered to mice intraperitoneally at a dose of 10 mg/kg of body weight, three times at intervals of two days. Control mice received only the solvent (DMSO). In one experiment tin protoporphyrin (SnPP) was also used.
(§2) The day after the last administration of CoPP the mice were sacrificed and samples were collected for analysis. Complete blood counts were obtained using a hematology analyzer. In addition, the phenotype and the quantity of leukocytes in the peripheral blood, bone marrow and spleen was analyzed in more detail using a flow cytometer. Moreover, concentrations of 32 cytokines and growth factors in plasma were analyzed. The results of analyzes indicate that mice that were treated with CoPP had increased number of white blood cells (WBC) in the blood compared to mice that received only DMSO (3-fold in C3H mice, 2-fold in C57BL6xFVB mice). In both strains, there was a significant increase in the number of granulocytes (6.7-fold in C3H mice, 4-fold in C57BL6xFVB mice). There were no changes in the parameters such as hematocrit (HCT) and the number of erythrocytes (RBC) (FIG. 1, FIG. 2)
In order to investigate the mechanism responsible for the increase of the leukocytes (especially granulocytes) number, after administration of CoPP, the concentrations of cytokines and growth factors in the plasma were measured using the Luminex system. An increase in levels of granulocyte colony stimulating factor (G-CSF), chemokines MCP-1 (CCL2) and IP-10 (CXCL-10) and interleukin 6 was observed (FIG. 5, FIG. 6).

[2] = test system: C57BL6xFVB mice; assay: HSPC mobilization to blood, CoPP compared with G-CSF; type: in vivo; conditions: CoPP 10 mg/kg (15 μmol/kg) vs rhG-CSF 250 μg/kg, i.p. daily for five days
Description: FIG. 8—HSPC numbers in the blood of C57BL6xFVB mice treated with G-CSF and CoPP.
Effects of CoPP and exogenous G-CSF were compared. Mice were iterated with CoPP at the dose of 10 mg/kg (15 μmol/kg). Recombinant human G-CSF (rhG-CSF, Amgen) was used at the dose of 250 μg/kg. Compounds were injected i.p. daily for five days. Administration od CoPP mobilized higher number of HSPC (hematopoietic stem/progenitor cells) than administration of exogenous G-CSF (FIG. 8).

[3] = singlet oxygen generation by flash photolysis; type: physicochemical; conditions: laser light at 355 nm
Description: FIG. 7—singlet oxygen generation quantum yield (ΦΔ) for CoPP and SnPP in reference to phenalenone, measured by flash photolysis.
Because of the fact that potential described side effects of administration of porphyrins are associated with photosensitization, causing the formation of toxic reactive oxygen species, it was evaluated if CoPP is a photosensitizer and thus may cause side effects. To this end, the ability to generate reactive oxygen species by CoPP was verified by flash photolysis. […] In contrast, in experiment with another porphyrin (SnPP) 89% of absorbed energy was used for generation of singlet oxygen (FIG. 7). It is therefore unlikely that CoPP will cause photosensitization, what often limits the clinical application of other compounds from the group of porphyrins.

[4] = solubility; type: physicochemical; conditions: alkaline aqueous solutions
Source text: Cobalt porphyrins can be prepared by known methods. For example, cobalt protoporphyrin IX can be prepared using methods as described in: “Porphyrins and Metalloporphyrins” Ed. by K. M. Smith, Elsevier Scientific Pub. Co (1975) ISBN 0-444-41375-8 oraz Kenner, G. W., et al., Liebigs Ann. Chem. 1973, 1329-1338 and Burns, D. H., et al., J. Chem. Soc., Perkin Trans. 1, 1988, 3119. […] In the production process and the preparation of a medical agent cobalt protoporphyrin is proposed to be dissolved in an alkaline solution (eg. 0.2 M Na3PO4.12H20; ˜0.2 ml/ml final volume) and then with sterile water (˜0.7 ml/ml final volume), pH adjusted to 7.5-7.8 (eg. 0.3N HCl).

[5] = test system: C3H and C57BL6xFVB mice; assay: flow cytometry of peripheral blood granulocytes in mice; type: in vivo
Source text: FIG. 3—the percentage of granulocytes in peripheral blood in C3H mice after administration of the test compounds; (test ANOVA+Bonferroni test),
FIG. 4—the percentage of granulocytes in the peripheral blood of C57BL6xFVB mice after administration of CoPP; (test ANOVA+Bonferroni test),
CoPP is used in scientific experiments, both in vitro and in vivo as heme oxygenase-1 inducer. […] In some of the experiments tin protoporphyrin IX (SnPP), which is an inhibitor of the enzymatic activity of HO-1, was also used.
as §1
as §2, with “In both strains, there was a significant increase in the number of granulocytes (6.7-fold in C3H mice, 4-fold in C57BL6xFVB mice). There were no changes in the parameters such as hematocrit (HCT) and the number of erythrocytes (RBC) (FIG. 1, FIG. 2)” left out

[6] = test system: C3H and C57BL6xFVB mice; assay: complete blood counts (hematology analyzer) in mice after CoPP; type: in vivo; conditions: for increase in number of granulocytes / increase in number of white blood cells (WBC) in blood compared to DMSO: three times at intervals of two days
Source text: The possibility of using CoPP for cell mobilization has been confirmed in experiments conducted on two different strains of mice: C3H (5 mice per group) and C57BL6xFVB (5-6 mice per group). The figures show:
FIG. 1—peripheral blood cell counts in C3H mice after administration of the test compounds (HCT—hematocrit, RBC—erythrocytes, WBC—leukocytes, LYM—lymphocytes, MON—monocytes, GRA—granulocytes, #—number of cells per mm^3, %—percentage of the population among all leukocytes; (ANOVA+Bonferroni test)
FIG. 2—peripheral blood cell counts in C57BL6xFVB strain after administration of CoPP; (test ANOVA+Bonferroni test)
as §1, §2

[7] = both strains, 10 mg/kg i.p., three times

C=Cc1c(C)c2cc3[nH]c(cc4nc(cc5nc(cc1[nH]2)C(C)=C5CCC(=O)[O-])C(CCC(=O)[O-])=C4C)c(C)c3C=C.[Co+2] [CoPP, cobalt protoporphyrin IX]
plasma level of chemokine IP-10 (CXCL-10) [1]: increase
plasma level of chemokine MCP-1 (CCL2) [1]: increase
plasma level of granulocyte colony stimulating factor (G-CSF) [1]: increase
plasma level of interleukin 6 [1]: increase
number of HSPC mobilized compared with exogenous G-CSF [2]: higher number
generation of singlet oxygen upon absorption of laser light [3]: does not generate singlet oxygen
solubility [4]: soluble in alkaline aqueous solutions
mobilization of cells from bone marrow in HO-1 KO mice ([5]; HO-1 KO versus wild type mice, FIG. 4): works in a similar manner as in wild type mice
number of immature granulocytes (CD11b+/Ly6G low/Ly6C-/SCC mid phenotype) ([5]; peripheral blood, flow cytometer): increase
increase in number of granulocytes ([6]; C3H mice, 10 mg/kg i.p.): 6.7 fold
increase in number of white blood cells (WBC) in blood compared to DMSO ([6]; C3H mice, 10 mg/kg i.p.): 3 fold
increase in number of granulocytes ([6]; C57BL6xFVB mice, 10 mg/kg i.p.): 4 fold
increase in number of white blood cells (WBC) in blood compared to DMSO ([6]; C57BL6xFVB mice, 10 mg/kg i.p.): 2 fold
hematocrit (HCT) [6, 7]: no changes
number of erythrocytes (RBC) [6, 7]: no changes

C=Cc1c2[n-]c(c1C)/C=c1\[n-]/c(c(C)c1C=C)=C\c1[n-]c(c(CCC(=O)O)c1C)C=c1[n-]/c(c(C)c1CCC(=O)O)=C\2.[Sn+4] [SnPP, tin protoporphyrin IX, reference compound]
absorbed energy used for generation of singlet oxygen [3]: 89%
effect on the measured parameters (blood counts, granulocytes, cytokines) ([6]; C3H mice, FIG. 1,3,5): did not affect the majority of the measured parameters
